Experimental data taken from ChEMBL document CHEMBL3992552, “Mechanisms of action and structure-activity relationships of cytotoxic flavokawain derivatives” (Bioorg Med Chem, 2017).
Active and inactive are the calls of the source. The calls are words filed in the database; no cut-off is given here.

Assays:
Huh-7 [1] = experiment: Cytotoxicity against human HuH7 cells assessed as cell survival at 50 uM after 48 hrs by Hoechst 33342 staining based assay relative to control; type: functional; conditions: Huh-7, 48 h, read-out: Survival
Caco-2 [2] = experiment: Cytotoxicity against human Caco2 cells assessed as cell survival at 50 uM after 48 hrs by Hoechst 33342 staining based assay relative to control; type: functional; conditions: Caco-2, 48 h, read-out: Survival
[3] = Cytotoxicity against human fibroblasts assessed as cell survival at 50 uM after 48 hrs by Hoechst 33342 staining based assay relative to control; set-up: species or system Fibroblast; conditions: read-out: Survival
Caco-2 [4] = experiment: Cytotoxicity against human Caco2 cells assessed as cell viability after 48 hrs by Hoechst 33342 staining based assay; type: functional; conditions: Caco-2, 48 h
PC-3 [5] = experiment: Cytotoxicity against human PC3 cells assessed as cell viability after 48 hrs by Hoechst 33342 staining based assay; type: functional; conditions: PC-3, 48 h
NCI-H727 [6] = experiment: Cytotoxicity against human NCI-H727 cells assessed as cell viability after 48 hrs by Hoechst 33342 staining based assay; type: functional; conditions: NCI-H727, 48 h
[7] = Selectivity index, ratio of IC50 for human fibroblasts to IC50 for human MDA-MB-231 cells
[8] = Selectivity index, ratio of IC50 for human fibroblasts to IC50 for human HCT116 cells
[9] = Selectivity index, ratio of IC50 for human fibroblasts to IC50 for human NCI-H727 cells
[10] = Selectivity index, ratio of IC50 for human fibroblasts to IC50 for human HaCaT cells
[11] = Selectivity index, ratio of IC50 for human fibroblasts to IC50 for human MCF7 cells
HCT-116 [12] = experiment: Induction of apoptosis in human HCT116 cells harboring wild-type p53 assessed as increase in early apoptosis at 2 times IC50 after 48 hrs by YoPro/propidium iodide/Hoechst staining based assay; type: functional, cell-based
HCT-116 [13] = experiment: Induction of apoptosis in human HCT116 cells harboring wild-type p53 assessed as increase in late apoptosis at 2 times IC50 after 48 hrs by YoPro/propidium iodide/Hoechst staining based assay; type: functional, cell-based
PC-3 [14] = experiment: Induction of apoptosis in human PC3 cells harboring p53 mutant assessed as increase in early apoptosis at 2 times IC50 after 48 hrs by YoPro/propidium iodide/Hoechst staining based assay; type: functional, cell-based
PC-3 [15] = experiment: Induction of apoptosis in human PC3 cells harboring p53 mutant assessed as increase in late apoptosis at 2 times IC50 after 48 hrs by YoPro/propidium iodide/Hoechst staining based assay; type: functional, cell-based
MDA-MB-231 [16] = experiment: Induction of apoptosis in human MDA-MB-231 cells harboring p53 mutant assessed as increase in early apoptosis at 2 times IC50 after 24 hrs by YoPro/propidium iodide/Hoechst staining based assay; type: functional, cell-based
MCF7 [17] = experiment: Induction of apoptosis in human MCF7 cells harboring wild-type p53 assessed as increase in early apoptosis at 2 times IC50 after 24 hrs by YoPro/propidium iodide/Hoechst staining based assay; type: functional, cell-based
MCF7 [18] = experiment: Induction of apoptosis in human MCF7 cells harboring wild-type p53 assessed as increase in late apoptosis at 2 times IC50 after 24 hrs by YoPro/propidium iodide/Hoechst staining based assay; type: functional, cell-based
HCT-116 [19] = experiment: Induction of apoptosis in human HCT116 cells harboring wild-type p53 assessed as increase in cleaved caspase3 at 2 times IC50 after 48 hrs by Hoechst staining based assay; type: functional, cell-based
MDA-MB-231 [20] = experiment: Induction of apoptosis in human MDA-MB-231 cells harboring p53 mutant assessed as increase in cleaved caspase3 at 2 times IC50 after 24 hrs by Hoechst staining based assay; type: functional, cell-based
Huh-7 [21] = experiment: Cell cycle arrest in human HuH7 cells assessed as accumulation at S phase at 10 uM measured after 48 hrs by Hoechst/BrdU staining based fluorescence assay (reference value: 44%); type: functional
Caco-2 [22] = experiment: Cell cycle arrest in human Caco2 cells assessed as mitotic index at 10 uM measured after 48 hrs by Hoechst staining based fluorescence assay (reference value: 3.6); type: functional
HCT-116 [23] = experiment: Cell cycle arrest in human HCT116 cells harboring wild-type p53 assessed as mitotic index at 10 uM measured after 48 hrs by Hoechst staining based fluorescence assay (reference value: 2.3); type: functional
PC-3 [24] = experiment: Cell cycle arrest in human PC3 cells harboring p53 mutant assessed as mitotic index at 10 uM measured after 48 hrs by Hoechst staining based fluorescence assay (reference value: 2.5); type: functional
PC-3 [25] = experiment: Cell cycle arrest in human PC3 cells harboring p53 mutant assessed as accumulation at S phase at 10 uM measured after 48 hrs by Hoechst/BrdU staining based fluorescence assay (reference value: 40.8%); type: functional
NCI-H727 [26] = experiment: Cell cycle arrest in human NCI-H727 cells harboring p53 mutant assessed as mitotic index at 10 uM measured after 48 hrs by Hoechst staining based fluorescence assay (reference value: 1.1); type: functional
Huh-7 [27] = experiment: Cell cycle arrest in human HuH7 cells assessed as mitotic index at 25 uM measured after 48 hrs by Hoechst staining based fluorescence assay (reference value: 2.2); type: functional
Huh-7 [28] = experiment: Cell cycle arrest in human HuH7 cells assessed as accumulation at S phase at 25 uM measured after 48 hrs by Hoechst/BrdU staining based fluorescence assay (reference value: 44%); type: functional
Caco-2 [29] = experiment: Cell cycle arrest in human Caco2 cells assessed as mitotic index at 25 uM measured after 48 hrs by Hoechst staining based fluorescence assay (reference value: 3.6); type: functional
MDA-MB-231 [30] = experiment: Cell cycle arrest in human MDA-MB-231 cells harboring p53 mutant assessed as mitotic index at 25 uM measured after 48 hrs by Hoechst staining based fluorescence assay (reference value: 2.1); type: functional
MDA-MB-231 [31] = experiment: Cell cycle arrest in human MDA-MB-231 cells harboring p53 mutant assessed as accumulation at S phase at 25 uM measured after 48 hrs by Hoechst/BrdU staining based fluorescence assay (reference value: 42.2%); type: functional
HaCaT [32] = experiment: Cell cycle arrest in human HaCaT cells harboring […] p53 assessed as mitotic index at 25 uM measured after 48 hrs by Hoechst staining based fluorescence assay (reference value: 2.6); type: functional
HaCaT [33] = experiment: Cell cycle arrest in human HaCaT cells harboring […] p53 assessed as accumulation at S phase at 25 uM measured after 48 hrs by Hoechst/BrdU staining based fluorescence assay (reference value: 52.3%); type: functional
MDA-MB-231 [34] = experiment: Cell cycle arrest in human MDA-MB-231 cells assessed as accumulation at M phase by Hoechst staining based fluorescence assay; type: functional
HCT-116 [35] = experiment: Cell cycle arrest in human HCT116 cells assessed as accumulation at G1/S phase by Hoechst staining based fluorescence assay; type: functional
PC-3 [36] = experiment: Cell cycle arrest in human PC3 cells assessed as accumulation at M phase by Hoechst staining based fluorescence assay; type: functional
MCF7 [37] = experiment: Induction of apoptosis in human MCF7 cells harboring wild-type p53 assessed as upregulation of cyclinB1 measured after 18 hrs by Hoechst staining based assay; type: functional, cell-based
PC-3 [38] = experiment: Induction of apoptosis in human PC3 cells harboring p53 mutant assessed as upregulation of cyclinB1 after 48 hrs by Hoechst staining based assay; type: functional, cell-based
MDA-MB-231 [39] = experiment: Induction of apoptosis in human MDA-MB-231 cells harboring p53 mutant assessed as upregulation of cyclinB1 after 18 hrs by Hoechst staining based assay; type: functional, cell-based

In the case of `COc1cc(OC)c(C(=O)/C=C/c2ccccc2)c(OC)c1`, the viability at 50 µM (Huh-7 [1]) is reported as 6%, the viability at 50 µM (Caco-2 [2]) is reported as 5% and the viability at 48 h, 50 µM [3] is reported as 74%. The IC50 (Caco-2 [4]) was 5.8 µM, the IC50 (PC-3 [5]) was 5.1 µM and the IC50 (NCI-H727 [6]) was 11.4 µM. The “Ratio IC50” value [7] was greater than 3.9, the “Ratio IC50” value [8] was greater than 7.2 and the “Ratio IC50” value [9] was greater than 4.4. For the same molecule, the “Ratio IC50” value [10] was greater than 6.9, the “Ratio IC50” value [11] was greater than 5.3 and the Activity (HCT-116 [12]) was “Active”. For the same molecule, the Activity (HCT-116 [13]) was “Active”, the Activity (PC-3 [14]) was “Active” and the Activity (PC-3 [15]) was “Active”. For the same molecule, the Activity (MDA-MB-231 [16]) was “Active”, the Activity (MCF7 [17]) was “Active” and the Activity (MCF7 [18]) was “Active”. For the same molecule, the Activity (HCT-116 [19]) was “Active”, the Activity (MDA-MB-231 [20]) was “Active” and the Activity (Huh-7 [21]) was 45%. It also gave an Activity_index (Caco-2 [22]) of 38.7, an Activity_index (HCT-116 [23]) of 2 and an Activity_index (PC-3 [24]) of 18. The Activity (PC-3 [25]) was 24%, the Activity_index (NCI-H727 [26]) was 1.3 and the Activity_index (Huh-7 [27]) was 0.6. The Activity (Huh-7 [28]) was 0.7%, the Activity_index (Caco-2 [29]) was 13 and the Activity_index (MDA-MB-231 [30]) was 13.2. The Activity (MDA-MB-231 [31]) was 23%, the Activity_index (HaCaT [32]) was 0.1 and the Activity (HaCaT [33]) was 0.1%. The Activity (MDA-MB-231 [34]) was “Active”, the Activity (HCT-116 [35]) was “Active” and the Activity (PC-3 [36]) was “Active”. The Activity (MCF7 [37]) was “Active”, the Activity (PC-3 [38]) was “Active” and the Activity (MDA-MB-231 [39]) was “Active”.
`COc1cccc(/C=C/C(=O)c2c(OC)cc(OC)cc2OC)c1` showed a viability at 50 µM (Huh-7 [1]) of 3%, a viability at 50 µM (Caco-2 [2]) of 2% and a viability at 48 h, 50 µM [3] of 66%. The IC50 (Caco-2 [4]) was 3.9 µM, the IC50 (PC-3 [5]) was 3.1 µM and the IC50 (NCI-H727 [6]) was 8.2 µM. The “Ratio IC50” value [7] was greater than 5.7, the “Ratio IC50” value [8] was greater than 11.6 and the “Ratio IC50” value [9] was greater than 6.1. For the same molecule, the “Ratio IC50” value [10] was greater than 9.4, the “Ratio IC50” value [11] was greater than 5.3 and the Activity (HCT-116 [12]) was “Active”. For the same molecule, the Activity (HCT-116 [13]) was “Active”, the Activity (PC-3 [14]) was “Active” and the Activity (PC-3 [15]) was “Active”. For the same molecule, the Activity (MDA-MB-231 [16]) was “Active”, the Activity (MCF7 [17]) was “Active” and the Activity (MCF7 [18]) was “Active”. For the same molecule, the Activity (HCT-116 [19]) was “Active”, the Activity (MDA-MB-231 [20]) was “Active” and the Activity (Huh-7 [21]) was 40%. It also gave an Activity_index (Caco-2 [22]) of 36.8, an Activity_index (HCT-116 [23]) of 4.5 and an Activity_index (PC-3 [24]) of 27.6. It also gave an Activity (PC-3 [25]) of 23%, an Activity_index (NCI-H727 [26]) of 1.7 and an Activity_index (Huh-7 [27]) of 1. The Activity (Huh-7 [28]) was 0.3%, the Activity_index (Caco-2 [29]) was 4.8 and the Activity_index (MDA-MB-231 [30]) was 3.5. For the same molecule, the Activity (MDA-MB-231 [31]) was 12%, the Activity_index (HaCaT [32]) was 0.1 and the Activity (HaCaT [33]) was 0%. For the same molecule, the Activity (MDA-MB-231 [34]) was “Active”, the Activity (HCT-116 [35]) was “Active” and the Activity (PC-3 [36]) was “Active”. The Activity (MCF7 [37]) was “Active”, the Activity (PC-3 [38]) was “Active” and the Activity (MDA-MB-231 [39]) was “Active”.
In the case of `COc1cc(OC)c(C(=O)/C=C/c2ccccc2SC)c(OC)c1`, the viability at 50 µM (Huh-7 [1]) is reported as 4%, the viability at 50 µM (Caco-2 [2]) is reported as 17% and the viability at 48 h, 50 µM [3] is reported as 74%. It also gave an IC50 (Caco-2 [4]) of 8.8 µM, an IC50 (PC-3 [5]) of 7.6 µM and an IC50 (NCI-H727 [6]) of 8.7 µM. For the same molecule, the “Ratio IC50” value [7] was 3.2, the “Ratio IC50” value [8] was 4.7 and the “Ratio IC50” value [9] was 3.7. For the same molecule, the “Ratio IC50” value [10] was 4.1, the “Ratio IC50” value [11] was 3.4 and the Activity (HCT-116 [12]) was “Active”. The Activity (HCT-116 [13]) was “Active”, the Activity (PC-3 [14]) was “Active” and the Activity (PC-3 [15]) was “Active”. The Activity (MDA-MB-231 [16]) was “Active”, the Activity (MCF7 [17]) was “Active” and the Activity (MCF7 [18]) was “Active”. For the same molecule, the Activity (HCT-116 [19]) was “Active”, the Activity (MDA-MB-231 [20]) was “Active” and the Activity (Huh-7 [21]) was 37%. It also gave an Activity_index (Caco-2 [22]) of 29.3, an Activity_index (HCT-116 [23]) of 0.6 and an Activity_index (PC-3 [24]) of 12.1. The Activity (PC-3 [25]) was 30%, the Activity_index (NCI-H727 [26]) was 1 and the Activity_index (Huh-7 [27]) was 0.4. The Activity (Huh-7 [28]) was 0.3%, the Activity_index (Caco-2 [29]) was 4.2 and the Activity_index (MDA-MB-231 [30]) was 13.2. The Activity (MDA-MB-231 [31]) was 16%, the Activity_index (HaCaT [32]) was 0.1 and the Activity (HaCaT [33]) was 0%. For the same molecule, the Activity (MDA-MB-231 [34]) was “Active”, the Activity (HCT-116 [35]) was “Active” and the Activity (PC-3 [36]) was “Active”. For the same molecule, the Activity (MCF7 [37]) was “Active”, the Activity (PC-3 [38]) was “Active” and the Activity (MDA-MB-231 [39]) was “Active”.
